Experimental data as given in patent publication US12391685B2, “Inhibitors of RNA-guided nuclease target binding and uses thereof” (THE BROAD INSTITUTE, INC., priority 2018, dated 2025).

Target: SpCas9 (Streptococcus pyogenes serotype M1, UniProt Q99ZW2)
Test: eGFP-disruption assay in U2OS.eGFP.PEST cells
Type: cell-based, S. pyogenes
Design: host or cells: U2OS.eGFP.PEST
Conditions: screen of structural analogs of BRD7087; 15 μM compound, 24 h, U2OS.eGFP.PEST cells
Method: SpCas9 nuclease activity in eGFP-disruption assay. Approximately 200,000 U2OS.eGFP-PEST cells were nucleofected following two different methods either by nucleofecting plasmids or RNP using the SE Cell Line 4D-Nucleofector™ X Kit (Lonza) according to the manufacturer's protocol. In the plasmid nucleofection method, cells were nucleofected either with 440 ng of SpCas9 (Addgene Plasmid #43861) or 400 ng of SpCas9 along with 40 ng of sgRNA (pFYF1320 eGFP Site #1, Addgene Plasmid #47511). Cells nucleofected only with SpCas9-expressing plasmid were used as the transfection control. In the RNP nucleofection method, either […] SpCas9 or 20 pmol preformed SpCas9:gRNA (eGFP Site #1) complex were nucleofected. Approximately 20,000 transfected cells/well were plated in 4 replicates in a 96-well plate (Corning® 3904). Cells were incubated with the indicated amount of compound or DMSO for 24 h post transfection. A DMSO solution of compound (20 mM) was resuspended in the 10% FBS containing growth media and thoroughly mixed before adding to the cells. Cells were then fixed using 4% paraformaldehyde and imaged with the HCS NuclearMask™ Blue Stain (Life Technologies) as the nuclear counter-staining agent. Imaging was performed with an ImageXpress Micro automated microscope (Molecular Devices) at 10× magnification under three excitation channels (blue, green and red) acquiring nine sites per well. Images were analyzed using MetaXpress software and data were plotted using GraphPad Prism 6.
The Z′-value was calculated using the equation (1), where σ1 and σ2 are the standard deviations of DMSO control and SpCas9:gRNA control respectively. μ1 and μ2 are the mean % GFP^− cell population for DMSO control and SpCas9:gRNA control, respectively.

Chain of SpCas9 (Q99ZW2 whole entry): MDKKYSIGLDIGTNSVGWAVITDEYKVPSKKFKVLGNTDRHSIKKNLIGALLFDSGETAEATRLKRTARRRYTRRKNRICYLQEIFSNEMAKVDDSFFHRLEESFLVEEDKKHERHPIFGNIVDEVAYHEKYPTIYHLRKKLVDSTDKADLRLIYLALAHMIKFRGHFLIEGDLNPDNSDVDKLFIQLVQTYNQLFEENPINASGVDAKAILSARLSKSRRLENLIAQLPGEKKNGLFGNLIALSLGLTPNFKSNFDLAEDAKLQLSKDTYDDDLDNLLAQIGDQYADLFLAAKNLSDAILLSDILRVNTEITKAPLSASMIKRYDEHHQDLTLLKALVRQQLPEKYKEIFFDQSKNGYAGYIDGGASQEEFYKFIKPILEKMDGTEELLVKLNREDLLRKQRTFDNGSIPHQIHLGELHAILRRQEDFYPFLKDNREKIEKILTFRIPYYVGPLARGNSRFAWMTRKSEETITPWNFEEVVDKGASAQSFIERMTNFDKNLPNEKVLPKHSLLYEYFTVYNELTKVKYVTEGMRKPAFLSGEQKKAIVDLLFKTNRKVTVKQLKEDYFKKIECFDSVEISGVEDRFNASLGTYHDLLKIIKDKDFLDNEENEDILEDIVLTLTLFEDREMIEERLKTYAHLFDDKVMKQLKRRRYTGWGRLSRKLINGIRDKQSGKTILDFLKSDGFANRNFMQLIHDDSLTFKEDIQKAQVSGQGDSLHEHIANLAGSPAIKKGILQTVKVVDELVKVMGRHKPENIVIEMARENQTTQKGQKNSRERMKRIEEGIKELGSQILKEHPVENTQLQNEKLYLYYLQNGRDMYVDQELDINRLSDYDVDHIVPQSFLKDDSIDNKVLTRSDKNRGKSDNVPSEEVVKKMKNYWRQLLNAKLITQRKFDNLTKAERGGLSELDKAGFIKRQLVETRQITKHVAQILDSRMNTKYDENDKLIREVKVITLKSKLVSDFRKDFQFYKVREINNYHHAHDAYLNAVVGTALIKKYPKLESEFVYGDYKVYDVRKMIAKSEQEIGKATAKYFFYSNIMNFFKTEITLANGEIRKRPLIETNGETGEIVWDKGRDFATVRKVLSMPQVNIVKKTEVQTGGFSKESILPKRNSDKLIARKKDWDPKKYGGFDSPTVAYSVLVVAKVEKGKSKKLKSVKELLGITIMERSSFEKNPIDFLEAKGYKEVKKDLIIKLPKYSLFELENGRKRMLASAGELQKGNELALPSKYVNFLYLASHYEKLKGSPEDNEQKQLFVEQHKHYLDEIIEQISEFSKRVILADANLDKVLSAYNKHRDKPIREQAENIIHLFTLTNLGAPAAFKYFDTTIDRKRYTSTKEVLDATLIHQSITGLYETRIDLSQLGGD

| SMILES | Average Inhibition activity | Inhibition activity Rep 1 | Inhibition activity Rep 2 |
| --- | --- | --- | --- |
| CN1c2ccc(C#Cc3ccccc3)cc2[C@@H]2[C@@H](CCN2S(=O)(=O)c2cn(C)cn2)[C@H]1CO [BRD-A34097118] | 60.1 | 50.1 | 70.1 |
| O=C(CC1CC1)N1CC[C@@H]2[C@H]1c1cc(-c3ccc(F)cc3)ccc1N[C@@H]2CO [BRD-K03427362] | 49.4 | 48.3 | 50.6 |
| COc1cccc(S(=O)(=O)N2CC[C@@H]3[C@H]2c2cc(C#Cc4cccnc4)ccc2N(C)[C@H]3CO)c1 [BRD-K04388421] | 51.2 | 49.1 | 53.3 |
| O=C(Cc1ccccc1)N1CC[C@@H]2[C@H](CO)Nc3ccc(-c4ccc(F)cc4)cc3[C@@H]21 [BRD-K05104277] | 65.0 | 71.6 | 58.4 |
| COCC(=O)N1CC[C@@H]2[C@H](CO)Nc3ccc(C#Cc4cccc(F)c4)cc3[C@@H]21 [BRD-K09759494] | 50.9 | 51.1 | 50.7 |
| Cc1ccccc1S(=O)(=O)N1CC[C@@H]2[C@H](CO)N(C)c3ccc(C#Cc4ccc(F)cc4)cc3[C@@H]21 [BRD-K11385710] | 51.1 | 55.7 | 46.5 |
| COc1cccc(-c2ccc3c(c2)[C@@H]2[C@@H](CCN2C(=O)c2cnccn2)[C@@H](CO)N3)c1 [BRD-K11943259] | 58.8 | 53.0 | 64.6 |
| CN1c2ccc(C#Cc3cccnc3)cc2[C@H]2[C@H](CCN2C(=O)C2CCCCC2)[C@H]1CO [BRD-K11970601] | 54.5 | 59.0 | 50.0 |
| O=S(=O)(c1cccc(F)c1)N1CC[C@@H]2[C@H](CO)Nc3ccc(C#Cc4ccccc4F)cc3[C@@H]21 [BRD-K12807496] | 60.8 | 50.9 | 70.7 |
| O=S(=O)(c1cccc(F)c1)N1CC[C@@H]2[C@H]1c1cc(C#Cc3ccccc3F)ccc1N[C@@H]2CO [BRD-K14474387] | 61.3 | 56.1 | 66.4 |
| COc1ccc(S(=O)(=O)N2CC[C@@H]3[C@@H](CO)N(C)c4ccc(-c5ccc(F)cc5)cc4[C@@H]32)cc1 [BRD-K16827616] | 60.5 | 76.4 | 44.6 |
| COc1ccc(-c2ccc3c(c2)[C@H]2[C@H](CCN2C(=O)Cc2ccncc2)[C@H](CO)N3)cc1 [BRD-K17925790] | 51.7 | 52.6 | 50.8 |
| COc1ccccc1CN1CC[C@@H]2[C@H]1c1cc(C#Cc3ccccc3)ccc1N[C@@H]2CO [BRD-K18260949] | 49.5 | 49.8 | 49.1 |
| CN1c2ccc(C#Cc3cccnc3)cc2[C@@H]2[C@@H](CCN2C(=O)c2cccc(F)c2)[C@@H]1CO [BRD-K18296007] | 64.7 | 69.6 | 59.7 |
| O=C(C1CCCCC1)N1CC[C@@H]2[C@H]1c1cc(Br)ccc1N[C@@H]2CO [BRD-K20055065] | 70.7 | 67.5 | 73.9 |
| COc1ccccc1-c1ccc2c(c1)[C@H]1[C@H](CCN1C(=O)CN1CCOCC1)[C@H](CO)N2C [BRD-K22244182] | 50.3 | 57.2 | 43.4 |
| COc1ccccc1C#Cc1ccc2c(c1)[C@H]1[C@H](CCN1C(=O)CN1CCOCC1)[C@H](CO)N2 [BRD-K26627503] | 56.9 | 47.5 | 66.3 |
| COc1cccc(S(=O)(=O)N2CC[C@@H]3[C@H](CO)N(C)c4ccc(C#Cc5cccnc5)cc4[C@@H]32)c1 [BRD-K29966477] | 57.5 | 50.1 | 64.8 |
| O=C(C1CC1)N1CC[C@@H]2[C@H](CO)Nc3ccc(Br)cc3[C@@H]21 [BRD-K31090697] | 48.0 | 46.0 | 49.9 |

| SMILES | Average Inhibition activity | Inhibition activity Rep 1 | Inhibition activity Rep 2 |
| --- | --- | --- | --- |
| CCC(=O)N1CC[C@H]2[C@@H]1c1cc(C#Cc3ccccc3OC)ccc1N(C)[C@H]2CO [BRD-K31513357] | 66.7 | 59.8 | 73.6 |
| CN1c2ccc(-c3ccccc3F)cc2[C@H]2[C@H](CCN2C(=O)NC2CCCCC2)[C@H]1CO [BRD-K35104316] | 49.1 | 54.2 | 44.1 |
| CN1c2ccc(C#Cc3cccnc3)cc2[C@@H]2[C@@H](CCN2S(=O)(=O)c2ccccc2F)[C@H]1CO [BRD-K39647256] | 54.9 | 51.3 | 58.4 |
| COc1ccccc1C#Cc1ccc2c(c1)[C@H]1NCC[C@H]1[C@@H](CO)N2 [BRD-K39870434] | 68.1 | 53.7 | 82.5 |
| CN1c2ccc(-c3ccc(C#N)cc3)cc2[C@@H]2[C@@H](CCN2S(=O)(=O)c2cccc(F)c2)[C@H]1CO [BRD-K40448176] | 51.6 | 52.1 | 51.2 |
| CCCC#Cc1ccc2c(c1)[C@@H]1[C@@H](CCN1S(=O)(=O)c1ccccc1OC)[C@@H](CO)N2 [BRD-K43330291] | 59.3 | 68.2 | 50.4 |
| CN1c2ccc(C#Cc3cccnc3)cc2[C@@H]2[C@@H](CCN2C(=O)c2cccc(F)c2)[C@H]1CO [BRD-K46446619] | 64.6 | 63.4 | 65.9 |
| O=S(=O)(c1ccc(F)cc1)N1CC[C@@H]2[C@H](CO)Nc3ccc(C#CC4CC4)cc3[C@@H]21 [BRD-K47320872] | 45.1 | 44.5 | 45.7 |
| CCC(=O)N1CC[C@@H]2[C@H]1c1cc(C#Cc3ccc(F)cc3)ccc1N[C@@H]2CO [BRD-K49114971] | 56.1 | 49.0 | 63.1 |
| Cc1ccc(S(=O)(=O)N2CC[C@@H]3[C@H](CO)Nc4ccc(-c5cccc(C(=O)N(C)C)c5)cc4[C@@H]32)cc1 [BRD-K51395794] | 53.9 | 46.5 | 61.3 |
| CN1c2ccc(-c3cccc(C#N)c3)cc2[C@H]2[C@H](CCN2C(=O)C2CCCCC2)[C@H]1CO [BRD-K53346571] | 52.7 | 49.1 | 56.3 |
| COc1ccc(C#Cc2ccc3c(c2)[C@H]2[C@H](CCN2C(=O)c2ccccc2F)[C@H](CO)N3C)cc1 [BRD-K56594357] | 57.9 | 55.8 | 59.9 |
| CN1c2ccc(C#Cc3cccnc3)cc2[C@H]2[C@H](CCN2S(=O)(=O)c2ccccc2F)[C@@H]1CO [BRD-K58893765] | 62.6 | 67.8 | 57.4 |
| O=C(C1CCCCC1)N1CC[C@@H]2[C@H](CO)Nc3ccc(Br)cc3[C@@H]21 [BRD-K60987574] | 60.9 | 59.5 | 62.2 |
| N#Cc1ccc(-c2ccc3c(c2)[C@H]2[C@H](CCN2C(=O)Cc2ccccc2)[C@@H](CO)N3)cc1 [BRD-K63155325] | 57.6 | 63.0 | 52.1 |
| O=S(=O)(c1cccc(F)c1)N1CC[C@H]2[C@H](CO)Nc3ccc(C#Cc4ccccc4F)cc3[C@H]21 [BRD-K67297693] | 72.2 | 64.3 | 80.1 |
| COc1ccc(S(=O)(=O)N2CC[C@@H]3[C@H](CO)N(C)c4ccc(-c5ccccc5F)cc4[C@@H]32)cc1 [BRD-K69451415] | 53.4 | 56.2 | 50.6 |
| COc1ccc(C#Cc2ccc3c(c2)[C@@H]2[C@@H](CCN2Cc2nccs2)[C@@H](CO)N3)cc1 [BRD-K70808105] | 51.5 | 47.4 | 55.6 |
| OC[C@@H]1Nc2ccc(C#Cc3cccnc3)cc2[C@H]2NCC[C@@H]12 [BRD-K71200053] | 67.6 | 54.6 | 80.6 |
